Data published in patent US10299714B2, “Blood collection devices containing blood stabilization agent including variegin or analog thereof and/or a polysulfated disaccharide” (Becton, Dickinson and Company, priority 2010, dated 2019).

What was measured:
[1] = test system: platelets; experiment: Whole blood impedance aggregometry (Multiplate): platelet aggregation after room temperature storage of drawn blood; assay type: cell-based, human; conditions: for Time after blood draw where aggregation was still measurable above baseline: Table 5, collagen and/or ADP
Excerpt: The blood was allowed to stand at room temperature, in undisturbed aliquots, until tested at the times indicated. Samples were inverted several times immediately prior to testing, to re-suspend blood cells that naturally settle over time.
Measurements: Testing of platelet function (which in this experiment, was aggregation activity) was done using the Multiplate instrument (Verum Diagnostics, Munich, Germany), which uses whole blood as the sample and an increase in impedance as the measurement of platelet aggregation. The instrument was used per manufacturer's instructions. Briefly, 300 microliters of isotonic saline was warmed in each reaction cuvette, and to this was added 300 microliters of the whole blood sample. In reactions where aspirin or other platelet antagonists (inhibitors) were added in vitro, 20 microliters (μL) of a stock solution of aspirin was spiked into the samples. The aggregation reaction was initiated by addition of a platelet agonist, in this case collagen, at 3.2 μg/ml and volume (20 μl) per manufacturer's instructions. Upon addition of the collagen, the impedance measurements began automatically, and were continued for 6 minutes, representing the full course along the x-axis in the graphs shown in FIG. 2. The graphs show platelet aggregation, as reported by impedance, as an arbitrary unitless measurement on the y-axis, over the 6-minute run time on the x-axis. Traces shown are raw platelet aggregation data delivered from the instrument. […] Representative data are shown for blood that dwells at room temperature after the initial draw for 1 hr, 24 hr, 48 hr, and 72 hr. Data are shown for the blood itself, as well for blood pre-treated with aspirin to inhibit platelet function immediately prior to testing.
The experiments were performed as described in Example 1. In this case, the data are plotted as a function of time that the blood sample dwells outside of the body (x-axis) versus platelet function as shown as the area under the curve (AUC) as one representation of the platelet aggregation signal. AUC is the integrated signal from the raw data traces shown in Example 1, and also is reported as a unitless measurement. The effective background level of the instrument is drawn as a dashed line across the bottom of the graph. Any AUC measurement of aggregation at or below this level was considered so weak as to be unreportable, essentially representing a “null” data level.
(§1) Relative stability of platelets was examined with respect to a range of concentrations of variegin (SEQ ID NO:1). Experiments were performed as described above, using either collagen or adenosine diphosphate (ADP) as agonists, all per manufacturer's recommended protocols. Table 2 lists a qualitative assessment of stability, namely how long after initially drawing the blood was platelet aggregation measureable above the effective instrument baseline, the time to first visual observation of clotted, insoluble material in the whole blood sample, and an assessment of the severity or extent of the presence of this insoluble material was also recorded.
These peptides were used as the blood stabilization agent, and were spiked into blood immediately after collection into an empty, evacuated blood collection tube, achieving a final concentration of 150 μM. The blood was allowed to dwell in a whole-blood state at room temperature, until assayed for platelet aggregation potential, all as described in Example 1. Agonists used included collagen and ADP, following manufacturer's instructions.

[2] = test system: whole blood sample; experiment: Visual inspection of stored whole blood sample for clotted, insoluble material; parameters: species or system human
Method: as §1
These peptides were used as the blood stabilization agent, and were spiked into blood immediately after collection into an empty, evacuated blood collection tube, achieving a final concentration of 150 μM. The blood was allowed to dwell in a whole-blood state at room temperature, until assayed for platelet aggregation potential, all as described in Example 1. Agonists used included collagen and ADP, following manufacturer's instructions. Table 4 lists a qualitative assessment of stability, namely how long after initially drawing the sample was platelet aggregation measureable above the effective instrument baseline. Additionally, the time to first visual observation of clotted, insoluble material in the whole blood sample, and an assessment of the severity or extent of the presence of this insoluble material was also recorded. In some cases, only visual characterization of the amount of insoluble material was reported, without having performed any platelet aggregation measurements.
(§2) The results are shown in Table 5 which lists additives alone or in combination that were spiked into freshly drawn whole blood samples. […] For some of the conditions tested, only a subset of these three parameters was recorded.

[3] = test system: whole blood sample; experiment: Visual inspection of stored whole blood sample for hemolysis; assay type: cell-based, human
Excerpt: Skilled practitioners will appreciate the hemolyzed samples are an obvious visual clue that damage to blood cells has occurred, either during the collection, transport, or storage of blood samples. Although hemolysis is not necessarily detrimental to any one clinical assay, it is a well known interference for some tests, and thus it is preferable to avoid causing hemolysis. Hemolysis can be measured by visual scale (e.g., mild or slightly pink, moderate or noticeably red, or severe or dark red). Hemolysis can also be measured by spectroscopic measurement of the red color of the hemoglobin itself, and can be reported by the concentration of hemoglobin released into the serum or plasma (e.g., such that less than about 20 mg/dL concentration of released hemoglobin, or to an extent that the hemoglobin concentration cannot be measured visually or by spectroscopy represents “minor or negligible” hemolysis, about 20 to about 100 mg/dL represents “mild” hemolysis, about 100 to about 300 represents “moderate” hemolysis, or greater than about 300 mg/dL represents “severe” hemolysis).
as §2

[4] = biological target: thrombin (Homo sapiens, UniProt P00734); conditions: reported in Koh; cited from earlier work
[5] = relatively high concentration, used alone

In the case of `C[C@@H]1CCN(C(=O)[C@H](CCCN=C(N)N)NS(=O)(=O)c2cccc3c2NC[C@H](C)C3)[C@@H](C(=O)O)C1` [Argatroban, (2R,4R)-1-[(2S)-5-(diaminomethylideneamino)-2-[[(3R)-3-methyl-1,2,3,4-tetrahydroquinolin-8-yl]-sulfonylamino]pentanoyl]-4-methyl-piperidine-2-carboxylic acid, reference compound], the “Time after blood draw where aggregation was still measurable above baseline” value ([1]; additive alone at 50 μM) is reported as 30 h, the “Time after blood draw where aggregation was still measurable above baseline” value ([1]; additive alone at 75 μM) is reported as 24 h and the “Time after blood draw where aggregation was still measurable above baseline” value ([1]; additive alone at 100 μM) is reported as 24 h. For the same molecule, the “time for stability of the sample for platelet aggregation measurements” value [1, 5] was “less time for stability of the sample for platelet aggregation measurements”, the onset of clotting [2, 5] was “faster onset of clotting” and the “Visual inspection for hemolysis” value ([3]; Table 5, additive alone at 100 μM) was “Extensive”. The hemolysis [3, 5] was “extensive amounts of hemolysis”.

In the case of “MHKTAPPFDFEAIPEEYLDDES (Synthetic Peptide Variegin Fragment) [Ct22]”, the “thrombin inhibition for therapeutic purposes” value [4] is given as “effective thrombin inhibitor” and the “time after blood draw to solid clotting of the sample” value ([2]; peptide 150 μM, room temperature) is given as “clots solidly within one hour”.
